Measurements published in PMC8402547, “In Vitro and In Vivo Analysis of Ochratoxin A-Derived Glucuronides and Mercapturic Acids as Biomarkers of Exposure” (Toxins, 2021).

Legend:
[1] = Direct LC–MS/MS analysis of OTA metabolites in urine of OTA-treated rats; assay type: in vivo, male F344/N rats; conditions: OTA up to 2 mg/kg bw, negative ionization mode
Protocol: Archived urine samples from previous repeated dose oral toxicity studies on OTA in male F344/N rats were used. The studies were performed according to national animal welfare regulations after authorization by the local authorities (Regierung von Unterfranken, AZ 621-2531.01-9/98 and AZ 54-2531.01-59/05).
14-day study: Male F344 rats (170–190 g) were purchased from Charles-River Laboratories, Sulzfeld, Germany. Animals had free access to water and standard diet (Altromin) and were kept under standard conditions (12 h day/night cycle, temperature 21–23 °C, humidity 45–55%). Rats were transferred to metabolic cages (Tecniplast Metabolic Cage—Rats Over 300 g; Tecniplast, Italy) for collection of urine 3 days prior to dosing. Animals were administered OTA dissolved in corn oil by oral gavage at 0, 0.25, 0.5, 1.0 and 2.0 mg/kg bw for 2 weeks (5 days per week). Urine was collected every 12 h on day 1 of treatment and every 24 h thereafter on ice, aliquoted and stored at −20 °C until further analysis.
90-day study: Male F344/N rats (6–7 weeks old) were purchased from Harlan-Winkelmann, Borchen, Germany. Animals were housed in groups of 5 in Macrolon type-4 cages and allowed free access to pelleted standard rat maintenance diet (SSNIFF, Soest, Germany) and tap water. After a week of acclimatization, rats (n = 5/dose) were exposed to OTA dissolved in corn oil by oral gavage at doses of 0, 21, 70 or 210 µg/kg bw for 2, 4 or 13 weeks (5 days per week). For urine collection, animals were transferred into metabolic cages (Tecniplast Metabolic Cage—Rats Over 300 g; Tecniplast, Italy) 48 h prior to necropsy and fasted for 20 h but allowed free access to tap water. Urine was collected for 24 h on ice, aliquoted and stored at −20 °C until further analysis.
Urine samples were diluted with acetonitrile (2:1), vortexed and cleared via centrifugation (4 °C, 15 min., 2000× g) to precipitate proteins. Of the resulting supernatant, 10 µL were injected into the LC–MS system and analyzed using the method described below.
(§1) LC–MS/MS analyses were performed on an Agilent 1100 series LC coupled to an API 2000/Q-Trap mass spectrometer (Applied Biosystems/MDS Sciex, Concord, Canada). Samples were injected into the LC–MS/MS system through an Agilent 1100 series autosampler. Separations were carried out on a ReproSil-Pur C18 AQ column (2 mm × 150 mm, 5 µm; Dr. Maisch; Ammerbuch, Germany). Gradient elution of OTA-derived metabolites was carried out with water + 0.1% formic acid (solvent A) and acetonitrile (solvent B). Initially, solvent A was held isocratic for 5 min at 100%, followed by a linear gradient to 95% B in 5 min. These conditions were held for further 5 min. Within 1 min, the gradient decreased linearly to 0% B and remained at initial conditions until the end of analysis (30 min). A flow rate of 0.2 mL/min was used. For each run, 10 µL of the respective sample were injected by the autosampler.
(§2) The API 2000/Q-Trap mass spectrometer was operated with a Turbo Ion Spray source in negative ion mode with a voltage of −4000 V. Spectral data were recorded with N2 as the heater gas at 450 °C and as the collision gas (CAD = −2) in multiple reaction monitoring mode (MRM).
(§3) In addition to MRM, constant neutral loss of 129 amu in the negative ion mode based on the characteristic fragmentation pattern of mercapturic acids was used to screen for N-acetyl-cysteine conjugates of OTA. Furthermore, constant neutral loss of 176 amu in positive ion mode based on the fragmentation pattern of glucuronic acid conjugates was used to screen for OTA glucuronides.

[2] = In vitro incubation of OTA with liver S9 in the presence of GSH or NAC; assay type: in vitro ADME, rat; conditions: for Time-dependent formation from OTA: rat liver S9, with NADPH regenerating system, GSH or NAC 5 mM, t = 0, 60, 120 min; for Formation from OTA in the absence of the NADPH regenerating system: rat liver S9, no NADPH regenerating system
Protocol: (§4) Liver S9 fractions from rats (Sprague-Dawley, male, 97 donors, 20 mg/mL) and humans (mixed genders, 50 donors, 20 mg/mL) were obtained from XenoTech (Kansas City, USA). S9 fractions from Goettingen® minipigs and rabbits were prepared in-house based on a modified protocol from Hubbard et al. (1985). Rabbit liver (Blue Vienna x German Giant, female) was obtained from ImmonuGlobe (Himmelstadt, Germany), whereas minipig liver (Goettingen® minipig, male, 42.4 kg bw) was obtained from the University Goettingen, Department of Animal Science.
(§5) For analysis of OTA-derived GSH and NAC conjugates, liver S9 fractions (4 mg/mL) of rats, rabbits, minipigs and humans were incubated with OTA (0.1 mM), GSH or NAC (5 mM) and an NADPH regenerating system (NADP (5 mM), glucose-6-phosphate (5 mM), glucose-6-phosphate-dehydrogenase (1.25 units/mL)) in 100 mM phosphate-buffered saline (pH 7.4) in a total volume of 300 µL at 37 °C for two hours. Control incubations were carried out a) in the absence of GSH/NAC and b) in the absence of the NADPH regenerating system. Aliquots (100 µL) were removed immediately (t = 0) as well as after 60 (t = 60) and 120 (t = 120) minutes, and the enzymatic reaction was stopped by addition of 200 µL ACN and centrifugation (20 min, 4 °C, 20,000× g). The supernatants were removed and stored at −80 °C until further analysis.
as §1, §2, §3

[3] = as above; assay type: in vitro ADME, rabbit; conditions: for Time-dependent formation from OTA: rabbit liver S9, with NADPH regenerating system, GSH or NAC 5 mM, t = 0, 60, 120 min; for Formation from OTA in the absence of the NADPH regenerating system: rabbit liver S9, no NADPH regenerating system
Protocol: as §4, §5, §1, §2, §3

[4] = as above; assay type: in vitro ADME, minipig; conditions: for Time-dependent formation from OTA: minipig liver S9, with NADPH regenerating system, GSH or NAC 5 mM, t = 0, 60, 120 min; for Formation from OTA in the absence of the NADPH regenerating system: minipig liver S9, no NADPH regenerating system
Protocol: as §4, §5, §1, §2, §3

[5] = as above; assay type: in vitro ADME, human; conditions: for Time-dependent formation from OTA: human liver S9, with NADPH regenerating system, GSH or NAC 5 mM, t = 0, 60, 120 min
Protocol: as §4, §5, §1, §2, §3

CC(=O)NC(CSc1c(O)c2c(c(O)c1C(=O)N[C@@H](Cc1ccccc1)C(=O)O)C(=O)O[C@H](C)C2)C(=O)O (stereo partly drawn) [OTHQ-NAC]
Detection in urine of OTA-treated rats by direct LC–MS/MS (MRM) [1]: not detected | Time-dependent formation from OTA [2]: not evident | Time-dependent formation from OTA [3]: not evident | Time-dependent formation from OTA [4]: not evident | Time-dependent formation from OTA [5]: not evident

C[C@@H]1Cc2c(SC[C@H](NC(=O)CC[C@H](N)C(=O)O)C(=O)NCC(=O)O)cc(C(=O)N[C@@H](Cc3ccccc3)C(=O)O)c(O)c2C(=O)O1 [OTB-GSH]
Time-dependent formation from OTA [2]: not evident | Time-dependent formation from OTA [3]: not evident | Time-dependent formation from OTA [4]: not evident | Time-dependent formation from OTA [5]: not evident

C[C@@H]1Cc2c(Cl)cc(C(=O)O)c(O)c2C(=O)O1 [OTalpha]
Detection in urine of OTA-treated rats by direct LC–MS/MS (MRM) [1]: consistently found

C[C@H]1OC(=O)c2c(ccc(C(=O)N[C@@H](Cc3ccccc3)C(=O)O)c2O)[C@H]1O [4-hydroxy-OTB]
Time-dependent formation from OTA [2]: not observed | Time-dependent formation from OTA [3]: not observed | Time-dependent formation from OTA [4]: not observed | Time-dependent formation from OTA [5]: not observed

C[C@@H]1Cc2c(O)c(SC[C@H](NC(=O)CC[C@H](N)C(=O)O)C(=O)NCC(=O)O)c(C(=O)N[C@@H](Cc3ccccc3)C(=O)O)c(O)c2C(=O)O1 [OTHQ-GSH]
Formation from OTA in the absence of the NADPH regenerating system [2]: detected | Time-dependent formation from OTA [2]: not evident | Formation from OTA in the absence of the NADPH regenerating system [3]: detected | Time-dependent formation from OTA [3]: not evident | Formation from OTA in the absence of the NADPH regenerating system [4]: detected | Time-dependent formation from OTA [4]: not evident | Time-dependent formation from OTA [5]: not evident

CC(=O)NC(CSc1cc(C(=O)N[C@@H](Cc2ccccc2)C(=O)O)c(O)c2c1C[C@@H](C)OC2=O)C(=O)O (stereo partly drawn) [OTB-NAC]
Detection in urine of OTA-treated rats by direct LC–MS/MS (MRM) [1]: did not confirm the presence | Time-dependent formation from OTA [2]: not evident | Time-dependent formation from OTA [3]: not evident | Time-dependent formation from OTA [4]: not evident | Time-dependent formation from OTA [5]: not evident

C[C@@H](O)Cc1c(Cl)cc(C(=O)N[C@@H](Cc2ccccc2)C(=O)O)c(O)c1C(=O)O [OP-OTA]
Detection in urine of OTA-treated rats by direct LC–MS/MS (MRM) [1]: traces | Formation from OTA in the absence of the NADPH regenerating system [2]: not formed | Time-dependent formation from OTA [2]: observed | Formation from OTA in the absence of the NADPH regenerating system [3]: not formed | Formation from OTA in the absence of the NADPH regenerating system [4]: not formed | Time-dependent formation from OTA [4]: observed | Formation from OTA in the absence of the NADPH regenerating system ([5]; human liver S9, no NADPH regenerating system): not formed

C[C@@H]1Cc2c(O)cc(C(=O)N[C@@H](Cc3ccccc3)C(=O)O)c(O)c2C(=O)O1 [OTHQ]
Detection in urine of OTA-treated rats by direct LC–MS/MS (MRM) [1]: not detected | Time-dependent formation from OTA [2]: not observed | Time-dependent formation from OTA [3]: not observed | Time-dependent formation from OTA [4]: not observed | Time-dependent formation from OTA [5]: not observed

C[C@@H]1Cc2ccc(C(=O)N[C@@H](Cc3ccccc3)C(=O)O)c(O)c2C(=O)O1 [OTB]
Time-dependent formation from OTA [2]: no time-dependent increase | Time-dependent formation from OTA [3]: no time-dependent increase | Time-dependent formation from OTA [4]: no time-dependent increase | Time-dependent formation from OTA [5]: no time-dependent increase
